Laboratory results: patent US12319672B2, “Alpha-D-galactopyranoside derivatives” (Idorsia Pharmaceuticals Ltd, priority 2019, dated 2025)

Key:
human Gal-3 (hGal-3) = human Gal-3 (hGal-3) (Homo sapiens (Human), UniProt P17931); experiment: Competitive binding assay: binding of biotinylated hGal-3 to microplate-adsorbed asialofetuin (ASF); conditions: Activity on hGal-3; mean values of several measurements
Outline: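 Biotin-hGal-3/hGal-1 300-1000 ng/mL + cpd (DMSO dilutions) on ASF-coated plate, 3 h 4° C; wash; SA-HRP 80 ng/mL 1 h 4° C; wash; ABTS. IC50 = mean of several runs. hGal-1 preferably Cys→Ser (all six) mutant.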

human Gal-1 (hGal-1) = experiment: Competitive binding assay: binding of biotinylated hGal-1 to microplate-adsorbed asialofetuin (ASF); conditions: Activities on hGal-1; mean values of several measurements
human Gal-1 (hGal-1), sequence (P09382 2-135 limits assumed): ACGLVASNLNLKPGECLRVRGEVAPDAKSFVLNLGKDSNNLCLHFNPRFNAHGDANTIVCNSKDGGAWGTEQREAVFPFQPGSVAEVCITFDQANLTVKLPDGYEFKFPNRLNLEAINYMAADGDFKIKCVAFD
Outline: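 Compounds diluted in DMSO competed with biotinylated hGal-3 or hGal-1 (300-1000 ng/mL) for binding to plate-adsorbed asialofetuin for 3 h at 4° C. Bound galectin was detected with streptavidin-peroxidase (80 ng/mL, 1 h, 4° C) and ABTS substrate; IC50 reported as mean of several measurements.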

human Gal-3 (hGal-3), sequence (P17931 whole entry): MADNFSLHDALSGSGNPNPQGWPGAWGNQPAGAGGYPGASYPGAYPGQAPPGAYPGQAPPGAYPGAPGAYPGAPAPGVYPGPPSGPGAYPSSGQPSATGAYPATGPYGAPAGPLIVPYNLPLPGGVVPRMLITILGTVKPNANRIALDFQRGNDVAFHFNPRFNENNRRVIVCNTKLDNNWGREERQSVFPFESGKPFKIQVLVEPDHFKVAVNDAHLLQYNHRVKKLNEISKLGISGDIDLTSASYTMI

Compound	IC50 (human Gal-3 (hGal-3)) [nM]	IC50 (human Gal-1 (hGal-1)) [nM]
COC(=O)N1CCC(c2cc(C[C@H]3O[C@H](CO)[C@H](O)[C@H](n4cc(-c5cc(F)c(F)c(F)c5)nn4)[C@H]3OC)no2)CC1 [Example 3.32, methyl 4-(3-(((2R,3R,4S,5R,6R)-5-hydroxy-6-(hydroxymethyl)-3-methoxy-4-(4-(3,4,5-trifluorophenyl)-1H-1,2,3-triazol-1-yl)tetrahydro-2H-pyran-2-yl)methyl)isoxazol-5-yl)piperidine-1-carboxylate]	46	610
CO[C@@H]1[C@@H](n2cc(-c3cc(F)c(F)c(F)c3)nn2)[C@@H](O)[C@@H](CO)O[C@@H]1Cc1cc(C2CCN(C(=O)C(C)C)CC2)on1 [Example 3.33, 1-(4-(3-(((2R,3R,4S,5R,6R)-5-hydroxy-6-(hydroxymethyl)-3-methoxy-4-(4-(3,4,5-trifluorophenyl)-1H-1,2,3-triazol-1-yl)tetrahydro-2H-pyran-2-yl)methyl)isoxazol-5-yl)piperidin-1-yl)-2-methylpropan-1-one]	65	1080
CO[C@@H]1[C@@H](n2cc(-c3cc(F)c(F)c(F)c3)nn2)[C@@H](O)[C@@H](CO)O[C@@H]1Cc1cc(C2CCN(C(=O)C(C)(C)C)CC2)on1 [Example 3.34, 1-(4-(3-(((2R,3R,4S,5R,6R)-5-hydroxy-6-(hydroxymethyl)-3-methoxy-4-(4-(3,4,5-trifluorophenyl)-1H-1,2,3-triazol-1-yl)tetrahydro-2H-pyran-2-yl)methyl)isoxazol-5-yl)piperidin-1-yl)-2,2-dimethylpropan-1-one]	120	1510
CCCC(=O)N1CCC(c2cc(C[C@H]3O[C@H](CO)[C@H](O)[C@H](n4cc(-c5cc(F)c(F)c(F)c5)nn4)[C@H]3OC)no2)CC1 [Example 3.35, 1-(4-(3-(((2R,3R,4S,5R,6R)-5-hydroxy-6-(hydroxymethyl)-3-methoxy-4-(4-(3,4,5-trifluorophenyl)-1H-1,2,3-triazol-1-yl)tetrahydro-2H-pyran-2-yl)methyl)isoxazol-5-yl)piperidin-1-yl)butan-1-one]	48	930
CCNC(=O)N1CCC(c2cc(C[C@H]3O[C@H](CO)[C@H](O)[C@H](n4cc(-c5cc(F)c(F)c(F)c5)nn4)[C@H]3OC)no2)CC1 [Example 3.37, N-ethyl-4-(3-(((2R,3R,4S,5R,6R)-5-hydroxy-6-(hydroxymethyl)-3-methoxy-4-(4-(3,4,5-trifluorophenyl)-1H-1,2,3-triazol-1-yl)tetrahydro-2H-pyran-2-yl)methyl)isoxazol-5-yl)piperidine-1-carboxamide]	97	1090
CO[C@@H]1[C@@H](n2cc(-c3cc(F)c(F)c(F)c3)nn2)[C@@H](O)[C@@H](CO)O[C@@H]1Cc1cc(C2CCN(C(=O)NC(C)C)CC2)on1 [Example 3.38, 4-(3-(((2R,3R,4S,5R,6R)-5-hydroxy-6-(hydroxymethyl)-3-methoxy-4-(4-(3,4,5-trifluorophenyl)-1H-1,2,3-triazol-1-yl)tetrahydro-2H-pyran-2-yl)methyl)isoxazol-5-yl)-N-isopropylpiperidine-1-carboxamide]	43	450
CO[C@@H]1[C@@H](n2cc(-c3cc(F)c(F)c(F)c3)nn2)[C@@H](O)[C@@H](CO)O[C@@H]1Cc1cc(C2CCN(C)CC2)on1 [Example 3.39, (2R,3R,4S,5R,6R)-2-(hydroxymethyl)-5-methoxy-6-((5-(1-methylpiperidin-4-yl)isoxazol-3-yl)methyl)-4-(4-(3,4,5-trifluorophenyl)-1H-1,2,3-triazol-1-yl)tetrahydro-2H-pyran-3-ol]	260	5090
CO[C@@H]1[C@@H](n2cc(-c3cc(F)c(F)c(F)c3)nn2)[C@@H](O)[C@@H](CO)O[C@@H]1Cc1cc(C2CCN(CC(C)C)CC2)on1 [Example 3.41, (2R,3R,4S,5R,6R)-2-(hydroxymethyl)-6-((5-(1-isobutylpiperidin-4-yl)isoxazol-3-yl)methyl)-5-methoxy-4-(4-(3,4,5-trifluorophenyl)-1H-1,2,3-triazol-1-yl)tetrahydro-2H-pyran-3-ol]	230	2960
CO[C@@H]1[C@@H](n2cc(-c3cc(F)c(F)c(F)c3)nn2)[C@@H](O)[C@@H](CO)O[C@@H]1Cc1cc(C2CCN(CCC(C)(C)C)CC2)on1 [Example 3.42, (2R,3R,4S,5R,6R)-6-((5-(1-(3,3-dimethylbutyl)piperidin-4-yl)isoxazol-3-yl)methyl)-2-(hydroxymethyl)-5-methoxy-4-(4-(3,4,5-trifluorophenyl)-1H-1,2,3-triazol-1-yl)tetrahydro-2H-pyran-3-ol]	140	5900
CO[C@@H]1[C@@H](n2cc(-c3cc(F)c(F)c(F)c3)nn2)[C@@H](O)[C@@H](CO)O[C@@H]1Cc1cc(C2CCN(CC3CC3)CC2)on1 [Example 3.43, (2R,3R,4S,5R,6R)-6-((5-(1-(cyclopropylmethyl)piperidin-4-yl)isoxazol-3-yl)methyl)-2-(hydroxymethyl)-5-methoxy-4-(4-(3,4,5-trifluorophenyl)-1H-1,2,3-triazol-1-yl)tetrahydro-2H-pyran-3-ol]	130	2830
CO[C@@H]1[C@@H](n2cc(-c3cc(F)c(F)c(F)c3)nn2)[C@@H](O)[C@@H](CO)O[C@@H]1Cc1cc(C2CCN(CC3COC3)CC2)on1 [Example 3.44, (2R,3R,4S,5R,6R)-2-(hydroxymethyl)-5-methoxy-6-((5-(1-(oxetan-3-ylmethyl)piperidin-4-yl)isoxazol-3-yl)methyl)-4-(4-(3,4,5-trifluorophenyl)-1H-1,2,3-triazol-1-yl)tetrahydro-2H-pyran-3-ol]	560	5320
CO[C@@H]1[C@@H](n2cc(-c3cc(F)c(F)c(F)c3)nn2)[C@@H](O)[C@@H](CO)O[C@@H]1Cc1cc(C2CCN(S(C)(=O)=O)CC2)on1 [Example 3.45, (2R,3R,4S,5R,6R)-2-(hydroxymethyl)-5-methoxy-6-((5-(1-(methylsulfonyl)piperidin-4-yl)isoxazol-3-yl)methyl)-4-(4-(3,4,5-trifluorophenyl)-1H-1,2,3-triazol-1-yl)tetrahydro-2H-pyran-3-ol]	37	490
CCCS(=O)(=O)N1CCC(c2cc(C[C@H]3O[C@H](CO)[C@H](O)[C@H](n4cc(-c5cc(F)c(F)c(F)c5)nn4)[C@H]3OC)no2)CC1 [Example 3.46, (2R,3R,4S,5R,6R)-2-(hydroxymethyl)-5-methoxy-6-((5-(1-(propylsulfonyl)piperidin-4-yl)isoxazol-3-yl)methyl)-4-(4-(3,4,5-trifluorophenyl)-1H-1,2,3-triazol-1-yl)tetrahydro-2H-pyran-3-ol]	44	580
CO[C@@H]1[C@@H](n2cc(-c3cc(F)c(F)c(F)c3)nn2)[C@@H](O)[C@@H](CO)O[C@@H]1Cc1cc(C2CCN(S(=O)(=O)C(C)C)CC2)on1 [Example 3.47, (2R,3R,4S,5R,6R)-2-(hydroxymethyl)-6-((5-(1-(isopropylsulfonyl)piperidin-4-yl)isoxazol-3-yl)methyl)-5-methoxy-4-(4-(3,4,5-trifluorophenyl)-1H-1,2,3-triazol-1-yl)tetrahydro-2H-pyran-3-ol]	50	760
CO[C@@H]1[C@@H](n2cc(-c3cc(F)c(F)c(F)c3)nn2)[C@@H](O)[C@@H](CO)O[C@@H]1Cc1cc(C2CCN(C(=O)CC(C)C)CC2)on1 [Example 3.48, 1-(4-(3-(((2R,3R,4S,5R,6R)-5-hydroxy-6-(hydroxymethyl)-3-methoxy-4-(4-(3,4,5-trifluorophenyl)-1H-1,2,3-triazol-1-yl)tetrahydro-2H-pyran-2-yl)methyl)isoxazol-5-yl)piperidin-1-yl)-3-methylbutan-1-one]	41	470
CO[C@@H]1[C@@H](n2cc(-c3cc(F)c(F)c(F)c3)nn2)[C@@H](O)[C@@H](CO)O[C@@H]1Cc1cc(C2CCN(C(=O)C3CCCC3)CC2)on1 [Example 3.49, cyclopentyl(4-(3-(((2R,3R,4S,5R,6R)-5-hydroxy-6-(hydroxymethyl)-3-methoxy-4-(4-(3,4,5-trifluorophenyl)-1H-1,2,3-triazol-1-yl)tetrahydro-2H-pyran-2-yl)methyl)isoxazol-5-yl)piperidin-1-yl)methanone]	57	530
CO[C@@H]1[C@@H](n2cc(-c3cc(F)c(F)c(F)c3)nn2)[C@@H](O)[C@@H](CO)O[C@@H]1Cc1cc(C2CCN(C(=O)C3CCC3)CC2)on1 [Example 3.50, cyclobutyl(4-(3-(((2R,3R,4S,5R,6R)-5-hydroxy-6-(hydroxymethyl)-3-methoxy-4-(4-(3,4,5-trifluorophenyl)-1H-1,2,3-triazol-1-yl)tetrahydro-2H-pyran-2-yl)methyl)isoxazol-5-yl)piperidin-1-yl)methanone]	45	590
CO[C@@H]1[C@@H](n2cc(-c3cc(F)c(F)c(F)c3)nn2)[C@@H](O)[C@@H](CO)O[C@@H]1Cc1cc(C2CCN(C(=O)NC(C)(C)C)CC2)on1 [Example 3.52, N-(tert-butyl)-4-(3-(((2R,3R,4S,5R,6R)-5-hydroxy-6-(hydroxymethyl)-3-methoxy-4-(4-(3,4,5-trifluorophenyl)-1H-1,2,3-triazol-1-yl)tetrahydro-2H-pyran-2-yl)methyl)isoxazol-5-yl)piperidine-1-carboxamide]	31	230
CO[C@@H]1[C@@H](n2cc(-c3cc(F)c(F)c(F)c3)nn2)[C@@H](O)[C@@H](CO)O[C@@H]1Cc1cc(C2CCN(C(=O)[C@@H](N)C(C)C)CC2)on1 [Example 3.54, (S)-2-amino-1-(4-(3-(((2R,3R,4S,5R,6R)-5-hydroxy-6-(hydroxymethyl)-3-methoxy-4-(4-(3,4,5-trifluorophenyl)-1H-1,2,3-triazol-1-yl)tetrahydro-2H-pyran-2-yl)methyl)isoxazol-5-yl)piperidin-1-yl)-3-methylbutan-1-one]	440	1510
